Reference: US20260284202A1, “CONJUGATES OF SAPONIN AND ANTISENSE OLIGONUCLEOTIDES FOR USE IN THE TREATMENT OF NEURODEGENERATIVE DISEASES” (priority 2023, published 2026)

Tests used:
Type in all cases: cell-based, murine
[1] = tested on: Malat1 mRNA; assay: Malat1 mRNA knockdown in Neuro-2a cells (qRT-PCR); settings: for enhancing effect on Malat1 mRNA reduction in co-administration: named molecule titrated with fixed 200 nM Malat1 ASO; for Malat1 RNA still measurable: 20.000 nM Malat1 ASO alone or co-administered with 1 μM of the named molecule; for co-administration enhancement effect on Malat1 ASO efficacy: named molecule at 1 μM with titrated Malat1 ASO
Procedure: Neuro-2a (murine neuroblastoma cells) were cultured in DMEM (PAN-Biotech GmbH) supplemented with 10% fetal bovine serum (FBS, PAN-Biotech GmbH) and Pen/Strep (PAN-Biotech GmbH). For experiments, Neuro-2a cells were harvested, resuspended at 60.000 cells/mL and seeded at a density of 36.000 cells/well or 6.000 cells/well for the 24- or 96-well plates (Greiner BioOne). Cells were incubated overnight at 37° C. Before the start of treatment, 210 µL or 35 μL medium was added per well, respectively, followed by the conjugates from a 10× concentrated stock solution in DPBS (PAN-Biotech GmbH). Plates were incubated for 72 hr at 37° C. before the cells of the 24-well plates were harvested for gene expression analysis and the cell viability was assessed on the 96-well plates.
(§1) Total RNA from cells was isolated using TRIzol™ Reagent (Thermo Scientific) according to the manufacturer's instruction. Conversion into cDNA was performed using iScript™ cDNA Synthesis Kit (BioRad) using standard protocols. Gene expression levels of the gene of interest (GOI) and levels of specific housekeeping genes were determined using quantitative real-time PCR assays (qRT-PCR) using iTaq™ Universal SYBR® Green Supermix (BioRad) and the Light Cycler 480 II (Roche Diagnostics) with specific DNA primers, listed in Table A3. Each analysis reaction was performed in triplicate. Analysis was done by the ΔCt method to determine GOI expression relative to 2 specific housekeeping control mRNAs. Results are expressed as % relative GOI expression levels after normalization to DPBS treated control cells.
(§2) Neuro-2a cells (murine neuroblastoma cell line) were cultured in DMEM (PAN-Biotech GmbH) supplemented with 10% fetal bovine serum (FBS, PAN-Biotech GmbH) and Pen/Strep (PAN-Biotech GmbH). For experiments, Neuro-2a cells were harvested, resuspended at 60.000 cells/mL and seeded at a density of 36.000 cells/well or 6.000 cells/well for the 24 or 96-well plates (Greiner BioOne). Cells were incubated overnight at 37° C. Before the start of treatment, either 210 μL or 35 μL media was added per well resp., followed by the compounds from a 10× concentrated stock solution in DPBS (PAN-Biotech GmbH). In the control wells, or when only one compound was applied in treatment, additional DPBS was added so that the final volume per well was 900 µL or 150 μL for the 24 or 96-well plates (wp), respectively. Plates were incubated for 72 hr at 37° C. before the cells of the 24 wp were harvested for gene expression analysis or exon skip/aberrant transcript analysis and the cell viability was assessed on the 96 wp.
as §1, with “LightCycler” for “Light Cycler”, “A6.” for “A3.”

[2] = tested on: Sod1 RNA transcripts; assay: Sod1 aberrant transcript / exon skip in Neuro-2a cells (PCR gel analysis)
Procedure: Neuro-2a (murine neuroblastoma cells) were cultured in DMEM (PAN-Biotech GmbH) supplemented with 10% fetal bovine serum (FBS, PAN-Biotech GmbH) and Pen/Strep (PAN-Biotech GmbH). For experiments Neuro-2a cells were harvested, resuspended at 70.000 cells/mL and seeded at a density of 42.000 cells/well or 7.000 cells/well for the 24 or 96-well plates (Greiner BioOne). Cells were incubated overnight at 37° C. Before the start of treatment 120 μL or 20 μL media was added per well resp., followed by both saponin and/or PMO from a 10× concentrated stock solution in DPBS (PAN-Biotech GmbH). […] Plates were incubated for 72 hr at 37° C. before the cells of the 24 wp were harvested for gene expression analysis and the cell viability was assessed on the 96 wp.
Total RNA from cells was isolated using TRIzol™ Reagent (Thermo Scientific) according to the manufacturer's instruction. […] The gene expression was determined on 50 ng cDNA using the SapphireAmp Fast PCR Master Mix (Takara) with specific DNA primers, listed in Table A4. The PCR product was separated on a 2% agarose gel and fragments were analysed on the ChemiDoc XRS+ (BioRad) using Image Lab software (BioRad). For quantification of the % exon skip, the signal intensity of the aberrant transcript(s) (Mm Sod1 448 bp and 378 bp was divided over the total signal intensity of the skipped fragment(s)+full length fragment (Mm Sod1 545 bp)×100. […]

[3] = tested on: Sod1 transcript; assay: Remaining full length Sod1 transcript in Neuro-2a cells (qRT-PCR); settings: PMO without saponin component
Procedure: as §2, with “In the control wells, or when only one compound was applied in treatment, additional DPBS was added so that the final volume per well was 900 µL or 150 μL for the 24 or 96-well plates (wp), respectively.” left out
Total RNA from cells was isolated using TRIzol™ Reagent (Thermo Scientific) according to the manufacturer's instruction. […] Gene expression levels of the gene of interest (GOI) and levels of specific housekeeping genes were determined using quantitative real-time PCR assays (qRT-PCR) using iTaq™ Universal SYBR® Green Supermix (BioRad) and the LightCycler 480 II (Roche Diagnostics) with specific DNA primers, listed in Table A6. […] Results are expressed as % relative GOI expression levels after normalization to DPBS treated control cells.

Molecule | enhancing effect on Malat1 mRNA reduction in co-administration [1] | Malat1 RNA still measurable ([1]; 4320 min) | co-administration enhancement effect on Malat1 ASO efficacy [1] | other results
CC(=O)OC1C(C)OC(OC2C(C)OC(OC(=O)[C@]34CCC(C)(C)CC3C3=CCC5[C@@]6(C)CC[C@H](OC7OC(C(=O)O)C(O)C(OC8OCC(O)C(O)C8O)C7OC7OC(CO)C(O)C(O)C7O)[C@@](C)(/C=N/NC(=O)CCCCCN7C(=O)CC(SCCO)C7=O)C6CC[C@@]5(C)[C@]3(C)C[C@H]4O)C(OC3OC(C)C(OC4OCC(O)C(OC5OC(CO)C(O)C(O)C5O)C4O)C(O)C3O)C2O)C(O)C1OC1OCC(O)C(O)C1O (stereo partly drawn) [SO1861-AH-Block] | efficacious |  |  | concentration above which complete loss of Malat1 mRNA expression is achieved ([1]; titrated with fixed 200 nM Malat1 ASO): above 3200 nM
C[C@@H]1CC[C@@]2(OC1)O[C@H]1[C@@H](O)[C@H]3[C@@H]4CC[C@H]5C[C@@H](O[C@@H]6O[C@H](CO)[C@H](O[C@@H]7O[C@H](CO)[C@@H](O)[C@H](O[C@@H]8OC[C@@H](O)[C@H](O)[C@H]8O)[C@H]7O[C@@H]7O[C@H](CO)[C@H](O)[C@H](O[C@@H]8O[C@H](CO)[C@@H](O)[C@H](O)[C@H]8O)[C@H]7O)[C@H](O)[C@H]6O)[C@H](O)C[C@]5(C)[C@H]4CC[C@]3(C)[C@H]1[C@@H]2C [digitonin] |  | 10-15% | not observed | reduction in Malat1 mRNA ([1]; 10.000 nM of named molecule with 200 nM Malat1 ASO, 4320 min): approximately 70%
C[C@H]1O[C@@H](O[C@H]2[C@@H](O)C[C@H](O[C@H]3[C@@H](O)C[C@H](O[C@H]4CC[C@@]5(C)[C@H](CC[C@@H]6[C@@H]5C[C@@H](O)[C@]5(C)[C@@H](C7=CC(=O)OC7)CC[C@]65O)C4)O[C@@H]3C)O[C@@H]2C)C[C@H](O)[C@@H]1O [digoxin] | no enhancing effect | 10-15% | not observed | 
CC1(C)[C@@H](O[C@H]2O[C@H](C(=O)O)[C@@H](O)[C@H](O)[C@H]2O[C@@H]2O[C@H](C(=O)O)[C@@H](O)[C@H](O)[C@H]2O)CC[C@]2(C)[C@H]3C(=O)C=C4[C@@H]5C[C@@](C)(C(=O)O)CC[C@]5(C)CC[C@@]4(C)[C@]3(C)CC[C@@H]12 [glycyrrhizin] | no enhancing effect |  |  | 
C[C@H]1CC[C@]2(NC1)O[C@H]1C[C@H]3[C@@H]4CC[C@H]5C[C@@H](O[C@@H]6O[C@H](CO)[C@H](O[C@@H]7O[C@H](CO)[C@@H](O)[C@H](O[C@@H]8OC[C@@H](O)[C@H](O)[C@H]8O)[C@H]7O[C@@H]7O[C@H](CO)[C@@H](O)[C@H](O)[C@H]7O)[C@H](O)[C@H]6O)CC[C@]5(C)[C@H]4CC[C@]3(C)[C@H]1[C@@H]2C [tomatine] | no enhancing effect | 10-15% | not observed | 
SOD1 PMO: PMO targeting murine Sod1, SEQ ID: 20, GCCAGCCTAGGACCTACCTTGTGTA (all phosphorodiamidate morpholino (PMO)) |  |  |  | induction of aberrant Sod1 transcripts ([2]; PMO alone, up to 50 μM PMO (FIG. 4)): did not induce any aberrant Sod1 transcripts; activity (aberrant transcript induction, nonsense mediated mRNA decay) ([2]; without saponin component (FIG. 18C, 18D)): did not show any activity at any of the concentrations tested; reduction of full length Sod1 transcript [3]: not able to reduce transcript
